Holding throughout (type): biochemical
The target of one experiment is T1, PDGFR β enzyme (Homo sapiens, UniProt P09619).
T1 construct: purchased Invitrogen P3082
Kind of experiment: Inhibitory activity to PDGFR β enzyme, HTRF kinEASE TK kit. To be noted: read-out: Inhibition rate % (PDGFR β). The method, then: HTRF kinEASE TK (Cat.62TK0PEC, Cisbio)
PDGFR β enzyme (Cat.P3082, Invitrogen)
1 mL 1×Kinase Buffer includes 200 μL 5×Enzyme buffer, 5 μL 1M MgCl2, 1 μL 1M DTT, 1 μL 1M MnCl2, 20 μL 2500 nM SEB, 773 μL ddH2O.
TK-Substrate and ATP are diluted to 2.5 times of reaction concentration with 1×PDGFR β Kinase Buffer.
5×PDGFR β enzyme working solution is prepared with 1×PDGFR β kinase buffer.
4×Sa-XL665 working solution is prepared with Detection Buffer.
TK-Ab-Cryptate is diluted 100 times with Detection Buffer to use as working solution.

The next experiment deals with T2, PI3 K γ (Homo sapiens, UniProt P48736).
T2 construct: purchased Biology, Medicilon
T2 sequence (P48736 whole entry): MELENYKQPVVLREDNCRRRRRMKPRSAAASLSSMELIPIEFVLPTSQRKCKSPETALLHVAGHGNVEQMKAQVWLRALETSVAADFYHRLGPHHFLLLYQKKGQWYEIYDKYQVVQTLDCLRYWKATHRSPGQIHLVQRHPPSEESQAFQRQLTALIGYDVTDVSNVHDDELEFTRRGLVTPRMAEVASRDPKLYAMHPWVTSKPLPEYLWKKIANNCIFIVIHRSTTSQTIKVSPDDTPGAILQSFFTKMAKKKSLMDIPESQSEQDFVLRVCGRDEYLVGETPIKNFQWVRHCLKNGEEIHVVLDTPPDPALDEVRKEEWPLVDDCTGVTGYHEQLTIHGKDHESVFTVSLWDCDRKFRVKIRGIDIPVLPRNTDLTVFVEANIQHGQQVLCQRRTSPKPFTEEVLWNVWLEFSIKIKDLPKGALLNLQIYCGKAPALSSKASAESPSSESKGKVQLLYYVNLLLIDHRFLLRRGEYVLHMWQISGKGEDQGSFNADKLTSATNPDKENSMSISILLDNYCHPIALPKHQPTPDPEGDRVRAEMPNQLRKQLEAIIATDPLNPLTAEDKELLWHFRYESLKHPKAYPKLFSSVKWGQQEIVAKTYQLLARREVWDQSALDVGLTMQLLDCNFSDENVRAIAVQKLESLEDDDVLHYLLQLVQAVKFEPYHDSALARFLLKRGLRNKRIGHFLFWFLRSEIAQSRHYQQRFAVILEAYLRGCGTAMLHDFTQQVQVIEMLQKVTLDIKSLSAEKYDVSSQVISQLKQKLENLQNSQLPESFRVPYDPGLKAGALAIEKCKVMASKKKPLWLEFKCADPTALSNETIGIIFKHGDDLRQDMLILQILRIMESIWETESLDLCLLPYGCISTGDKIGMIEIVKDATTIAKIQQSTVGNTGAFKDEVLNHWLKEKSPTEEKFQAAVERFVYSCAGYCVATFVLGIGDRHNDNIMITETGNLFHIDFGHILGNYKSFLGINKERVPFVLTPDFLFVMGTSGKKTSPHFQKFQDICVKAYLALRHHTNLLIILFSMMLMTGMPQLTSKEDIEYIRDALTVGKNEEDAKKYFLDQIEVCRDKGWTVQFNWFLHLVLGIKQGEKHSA
Kind of experiment: Inhibitory activity to PI3K γ, PI 3-Kinase (human) HTRF Assay kit. To be noted: read-out: Inhibition rate % to PI3 K γ. From the text:
Study on the inhibitory activity of the compounds of present invention to PI 3κα, PI3κδ and PI3κγ. Two or three concentrations of the compounds are selected to preliminary screening to calculate respectively the activity inhibition rate of the compounds of corresponding concentrations to enzyme, then the compounds with better activity are selected by preliminary screening for IC50 test.
(§1) PI 3-Kinase (human) HTRF™ Assay kit (Cat.33-017, Millipore)
PI 3k γ (Biology, Medicilon)
4× Reaction Buffer (Cat.33-002, Millipore) is diluted with ddH2O to 1.33×, and 1M DTT is added to make the final concentration as 6.67 mM. For example, 10 μL DTT is added into 500 μL 4× Reaction Buffer, and water is added to 1.5 mL.
The Test compounds are dissolved with DMSO to 1 mM as storage liquid. 2 μL of each of storage liquid is added into 48 μL ddH2O, to obtain the 40 μM compounds solution containing 4% DMSO. After mixing, 3 μL of each of the solution is added into 27 μL 4% DMSO (in ddH2O) to obtain the 4 μM compounds solution. 5 μL of each dilute solution is added into 384-well plates, then the final concentration of the compounds in the 20 μL final kinase reaction system is 10 μM and 1 μM respectively contained 1% DMSO. The dilution methods of compounds are similar to the preliminary screening in IC50 test.
2×PIP2 working fluid is prepared with 1.33× reaction buffer to the final concentration of 20 μM.
The screening concentration of PI 3k γ kinase: 80 ng/well,
(§2) Kinase is diluted with 2×PIP2 operating fluid, the concentration of kinase operating fluid is 2 times of screening concentration.
10 mM ATP is diluted with 1.33× reaction buffer to 400 μM. The concentration of ATP is 100 μM in 20 μL kinase reaction system.
(§3) Stop A and Stop B are mixed according to the proportion of 3:1, and are placed for 2 hours at room temperature to obtain the stop solution available.
(§4) DM C, DM A and DM B are mixed according to the proportion of 18:1:1, and are placed for 2 hours at room temperature to obtain the detection solution available.

A further experiment addresses T3, PI3Kδ (Homo sapiens, UniProt O00329).
T3 construct: purchased Millipore 14-604
Kind of experiment: Inhibitory activity to PI3K δ, PI 3-Kinase (human) HTRF Assay kit. As to conditions: for inhibition at 1 µM: 1 μM (Table 7); for inhibition at 0.4 µM: 0.4 μM (Table 8); for inhibition at 2 µM: 2 μM (Table 8). On the procedure:
Study on the inhibitory activity of the compounds of present invention to PI 3κα, PI3κδ and PI3κγ.
as §1
For example, 10 μL DTT is added into 500 μL 4× Reaction Buffer, and water is added to 1.5 mL.
The Test compounds are dissolved with DMSO to 1 mM as storage liquid. 2 μL of each of storage liquid is added into 48 μL ddH2O, to obtain the 40 μM compounds solution containing 4% DMSO. After mixing, 3 μL of each of the solution is added into 27 μL 4% DMSO (in ddH2O) to obtain the 4 μM compounds solution. […]
The screening concentration of PI 3k δ kinase: 2 ng/well,
as §2
The concentration of ATP is 100 μM in 20 μL kinase reaction system.
as §3, §4

Where [1] appears, read: read-out: Inhibition rate % to PI3Kδ.
Setting [2] is: 10 μM (Table 7), read-out: Inhibition rate % to PI3Kδ.
The mark [3] stands for this setting: read-out: Inhibition rate % to PI3K delta.
Setting [4] is: 10 μM (Table 8), read-out: Inhibition rate % to PI3K delta.

Where two headings read alike, the source gives them in different places.

T1 sequence (P09619 33-1106): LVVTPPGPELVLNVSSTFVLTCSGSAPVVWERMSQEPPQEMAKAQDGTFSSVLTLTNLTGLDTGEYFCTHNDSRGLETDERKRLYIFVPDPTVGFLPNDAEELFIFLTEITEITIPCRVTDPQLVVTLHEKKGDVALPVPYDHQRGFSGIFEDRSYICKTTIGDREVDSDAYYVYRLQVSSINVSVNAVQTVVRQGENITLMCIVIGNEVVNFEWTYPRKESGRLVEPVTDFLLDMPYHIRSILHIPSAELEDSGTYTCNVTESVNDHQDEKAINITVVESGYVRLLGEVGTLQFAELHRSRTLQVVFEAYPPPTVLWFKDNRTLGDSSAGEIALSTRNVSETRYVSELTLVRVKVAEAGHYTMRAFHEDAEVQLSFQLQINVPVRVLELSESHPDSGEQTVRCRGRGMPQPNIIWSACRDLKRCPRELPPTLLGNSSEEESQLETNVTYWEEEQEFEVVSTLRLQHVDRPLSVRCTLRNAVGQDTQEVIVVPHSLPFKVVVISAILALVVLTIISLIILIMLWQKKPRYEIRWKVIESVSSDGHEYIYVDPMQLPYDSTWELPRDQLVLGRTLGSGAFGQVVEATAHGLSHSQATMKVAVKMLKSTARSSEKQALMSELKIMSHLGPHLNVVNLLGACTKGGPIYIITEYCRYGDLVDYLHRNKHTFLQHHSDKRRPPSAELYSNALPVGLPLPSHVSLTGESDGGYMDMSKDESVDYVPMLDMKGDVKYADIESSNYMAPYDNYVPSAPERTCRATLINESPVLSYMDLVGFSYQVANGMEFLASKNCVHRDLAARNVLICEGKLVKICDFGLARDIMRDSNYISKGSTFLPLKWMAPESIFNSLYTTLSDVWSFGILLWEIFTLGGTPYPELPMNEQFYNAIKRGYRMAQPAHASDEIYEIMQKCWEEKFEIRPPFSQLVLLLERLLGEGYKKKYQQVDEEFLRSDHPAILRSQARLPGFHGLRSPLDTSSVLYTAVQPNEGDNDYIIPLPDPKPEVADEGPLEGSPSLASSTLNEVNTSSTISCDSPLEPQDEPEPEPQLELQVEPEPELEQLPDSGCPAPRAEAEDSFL
T3 sequence (O00329 whole entry): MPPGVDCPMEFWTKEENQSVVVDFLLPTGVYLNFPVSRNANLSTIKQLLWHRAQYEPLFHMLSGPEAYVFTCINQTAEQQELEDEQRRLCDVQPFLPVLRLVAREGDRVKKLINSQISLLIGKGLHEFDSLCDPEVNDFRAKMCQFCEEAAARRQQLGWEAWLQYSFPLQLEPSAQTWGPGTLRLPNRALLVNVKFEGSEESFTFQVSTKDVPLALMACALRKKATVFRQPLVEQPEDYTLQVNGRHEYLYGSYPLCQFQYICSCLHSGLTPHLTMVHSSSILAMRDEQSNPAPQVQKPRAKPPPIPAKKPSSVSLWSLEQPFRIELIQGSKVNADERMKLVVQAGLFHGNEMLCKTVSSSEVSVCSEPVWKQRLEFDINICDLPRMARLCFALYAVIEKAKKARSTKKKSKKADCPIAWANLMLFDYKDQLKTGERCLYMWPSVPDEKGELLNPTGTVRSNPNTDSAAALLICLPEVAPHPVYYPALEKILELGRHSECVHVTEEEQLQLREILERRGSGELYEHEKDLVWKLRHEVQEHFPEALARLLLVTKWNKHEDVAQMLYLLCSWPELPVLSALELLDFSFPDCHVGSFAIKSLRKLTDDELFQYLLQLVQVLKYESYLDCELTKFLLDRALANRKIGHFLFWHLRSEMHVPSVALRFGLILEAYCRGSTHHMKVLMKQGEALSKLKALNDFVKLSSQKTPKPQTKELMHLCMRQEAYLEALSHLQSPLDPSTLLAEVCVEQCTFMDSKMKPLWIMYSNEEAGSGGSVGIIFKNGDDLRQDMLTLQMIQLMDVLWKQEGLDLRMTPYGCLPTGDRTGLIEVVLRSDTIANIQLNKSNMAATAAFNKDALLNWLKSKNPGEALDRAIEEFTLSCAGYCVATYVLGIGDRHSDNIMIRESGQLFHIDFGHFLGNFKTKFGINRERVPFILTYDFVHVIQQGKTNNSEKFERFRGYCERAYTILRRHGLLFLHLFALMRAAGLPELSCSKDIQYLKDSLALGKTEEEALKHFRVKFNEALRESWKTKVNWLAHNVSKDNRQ
T3 sequence (P27986 whole entry partner): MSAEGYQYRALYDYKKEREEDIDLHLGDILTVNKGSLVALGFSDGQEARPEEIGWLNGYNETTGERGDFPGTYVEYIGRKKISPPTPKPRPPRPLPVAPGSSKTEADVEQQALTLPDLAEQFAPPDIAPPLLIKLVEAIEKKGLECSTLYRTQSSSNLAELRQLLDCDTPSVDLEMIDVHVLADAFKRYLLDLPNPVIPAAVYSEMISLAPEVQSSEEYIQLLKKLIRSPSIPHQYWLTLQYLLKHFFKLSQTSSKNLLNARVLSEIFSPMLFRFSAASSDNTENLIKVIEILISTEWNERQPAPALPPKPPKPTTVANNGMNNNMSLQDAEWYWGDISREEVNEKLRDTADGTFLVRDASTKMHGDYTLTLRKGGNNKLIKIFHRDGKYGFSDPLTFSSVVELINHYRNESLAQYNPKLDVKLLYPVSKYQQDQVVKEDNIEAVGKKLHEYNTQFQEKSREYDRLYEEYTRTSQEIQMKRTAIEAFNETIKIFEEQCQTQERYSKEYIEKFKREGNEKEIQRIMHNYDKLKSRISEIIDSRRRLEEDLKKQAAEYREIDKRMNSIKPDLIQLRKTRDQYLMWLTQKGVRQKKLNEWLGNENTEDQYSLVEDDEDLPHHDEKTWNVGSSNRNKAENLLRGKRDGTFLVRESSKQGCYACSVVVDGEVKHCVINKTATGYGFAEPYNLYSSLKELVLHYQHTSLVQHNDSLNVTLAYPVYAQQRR

In the case of `COC(=O)C1(Nc2nc(Nc3ccc4nccc(-c5ccccc5)c4c3)nc3[nH]cnc23)CC1` [MED1007-15, 1-(2-(4-phenylquinoline-6-ylamino)-9H-purine-6-ylamino)cyclopropane carboxylic acid methyl ester], the inhibition at 1 µM at PDGFR β enzyme (1 μM) was 31.2%; at PI3 K γ it was 10.4%; on PI3Kδ (setting [1]), 1.25%. The results for the inhibition at 10 µM at PDGFR β enzyme, on PI3 K γ and at PI3Kδ (setting [2]) were 93.5%, 19.1% and 8.64%, respectively.

Regarding `c1cc(N2CCOCC2)c2cc(Nc3nc(NC4CC4)c4nc[nH]c4n3)ccc2n1` [MED1007-32, N6-cyclopropyl-N2-(4-morpholinequinoline-6-yl)-9H-purine-2,6-diamine], the figures for the inhibition at 1 µM on PDGFR β enzyme (1 μM), on PI3 K γ and on PI3Kδ (setting [1]) were 9.16%, -13.7% and 31%, respectively. For the same compound, the inhibition at 10 µM on PDGFR β enzyme stood at 24.5%; at PI3 K γ it was 4.28%; on PI3Kδ (setting [2]), 42.1%.

For `c1cc(N2CCNCC2)c2cc(Nc3nc(NC4CC4)c4nc[nH]c4n3)ccc2n1` [MED1007-33, N6-cyclopropyl-N2-(4-(piperazine-1-yl)quinoline-6-yl)-9H-purine-2,6-diamine], the values for the inhibition at 1 µM at PDGFR β enzyme (1 μM), on PI3 K γ and at PI3Kδ (setting [1]) were 4.71%, 21% and 21.4%, respectively. The values for the inhibition at 10 µM on PDGFR β enzyme, on PI3 K γ and on PI3Kδ (setting [2]) were 25.6%, 20% and 63%, respectively.

Consider `CC(C)Oc1nc(Nc2ccc3ncccc3c2)nc2[nH]cnc12` [MED1007-34, N-(6-isopropoxy-9H-purine-2-yl) quinoline-6-amine], for which the figures for the inhibition at 1 µM on PDGFR β enzyme (1 μM), on PI3 K γ and on PI3Kδ (setting [1]) were 53.8%, 24.4% and 40.2%, respectively. Besides, the inhibition at 10 µM is 98.8% on PDGFR β enzyme, 57.3% at PI3 K γ and 69.8% at PI3Kδ (setting [2]).

`c1ccc(Oc2nc(Nc3ccc4nccc(N5CCNCC5)c4c3)nc3[nH]cnc23)cc1` [MED1007-54, N-(6-phenoxy-9H-purine-2-yl)-4-(piperazine-1-yl) quinoline-6-amine]: the results for the inhibition at 1 µM at PDGFR β enzyme (1 μM), on PI3 K γ and on PI3Kδ (setting [1]) were 7.3%, -6.81% and 13.3%, respectively. In addition, the values for the inhibition at 10 µM at PDGFR β enzyme, on PI3 K γ and at PI3Kδ (setting [2]) were 43.7%, -4.67% and 42.4%, respectively.

Turning to `CC(C)Oc1nc(Nc2ccc3nccc(N4CCNCC4)c3c2)nc2[nH]cnc12` [MED1007-58, N-(6-isopropoxy-9H-purine-2-yl)-4-(piperazine-1-yl) quinoline-6-amine], the values for the inhibition at 1 µM at PDGFR β enzyme (1 μM), at PI3 K γ and at PI3Kδ (setting [1]) were 3.93%, -0.29% and 2.11%, respectively. Moreover, the inhibition at 10 µM at PDGFR β enzyme is 29.5%; on PI3 K γ, -0.98%; on PI3Kδ (setting [2]) it was 35%.

As to `COC(=O)c1ccc(-c2ccnc3ccc(Nc4nc(NC5CC5)c5nc[nH]c5n4)cc23)cc1` [MED1007-59, 4-(6-(6-(cyclopropylamino)-9H-purine-2-ylamino)quinoline-4-yl) p-methyl benzoate], the inhibition at 1 µM at PDGFR β enzyme (1 μM) turned out to be 4.39%; on PI3 K γ, 0.83%; at PI3Kδ (setting [1]), 18%. Further, the results for the inhibition at 10 µM on PDGFR β enzyme, at PI3 K γ and at PI3Kδ (setting [2]) were 0.93%, 4.97% and 59%, respectively.

For the compound `c1ccc(-c2ccnc3ccc(Nc4nc(N5CCOCC5)c5nc[nH]c5n4)cc23)cc1` [MED1007-109, N-(6-morpholine-9H-purine-2-yl)-4-phenyl quinoline-6-amine], at PI3Kδ (setting [3]), the inhibition at 0.4 µM came out at 22.6% and the inhibition at 2 µM was found to be 44%. For the same compound, at PI3Kδ (setting [4]), the inhibition at 10 µM is 91.6%.

On to `Oc1nc(Nc2ccc3nccc(-c4ccccc4)c3c2)nc2[nH]cnc12` [MED1007-110, 2-(4-phenylquinoline-6-ylamino)-9H-purine-6-ol], for which, at PI3Kδ (setting [3]), the inhibition at 0.4 µM came to 6.26% and the inhibition at 2 µM is 2.94%. Also, the inhibition at 10 µM at PI3Kδ (setting [4]) came to 12.6%.

Regarding `Cc1ccnc2ccc(Nc3nc(NC4CC4)c4nc[nH]c4n3)cc12` [MED1007-113, N6-cyclopropyl-N2-(4-methylquinoline-6-yl)-9H-purine-2,6-diamine dihydrate di-methanesulfonate], on PI3Kδ (setting [3]), the inhibition at 0.4 µM came to 30% and the inhibition at 2 µM is 37.7%. Moreover, the inhibition at 10 µM on PI3Kδ (setting [4]) was determined as 68.9%.

Regarding `CCc1ccnc2ccc(Nc3nc(NC4CC4)c4nc[nH]c4n3)cc12` [MED1007-114, N6-cyclopropyl-N2-(4-ethylquinoline-6-yl)-9H-purine-2,6 diamine dihydrate di-methanesulfonate], on PI3Kδ (setting [3]), the inhibition at 0.4 µM was 28.4% and the inhibition at 2 µM was found to be 49.1%. Besides, at PI3Kδ (setting [4]), the inhibition at 10 µM came out at 78.9%.

As for `COc1ccc(-c2ccnc3ccc(Nc4nc(O)c5nc[nH]c5n4)cc23)cc1` [MED1007-132, 2-(4-(4-methoxy-phenyl)quinoline-6-ylamino)-9H-purine-6-ol-methanesulfonate], on PI3Kδ (setting [3]), the inhibition at 0.4 µM was -0.76% and the inhibition at 2 µM is 8.54%. Moreover, at PI3Kδ (setting [4]), the inhibition at 10 µM was found to be 55%.

For the compound `CC(C)Oc1nc(Nc2ccc3nccc(-c4ccc5c(c4)OCO5)c3c2)nc2[nH]cnc12` [MED1007-133, 4-(benzo[1,3]-dioxole-5-yl)-N-(6-isopropoxy-9H-purine-2-yl) quinoline-6-amine-methanesulfonate], on PI3Kδ (setting [3]), the inhibition at 0.4 µM amounted to 20.8% and the inhibition at 2 µM amounted to 69%. The inhibition at 10 µM on PI3Kδ (setting [4]) came out at 83.4%.

With `CC(C)Oc1nc(Nc2ccc3nccc(-c4cccc(F)c4)c3c2)nc2[nH]cnc12` [MED1007-135, 4-(3-fluorophenyl)-N-(6-isopropoxy-9H-purine-2-yl) quinoline-6-amine-methanesulfonate], at PI3Kδ (setting [3]), the inhibition at 0.4 µM was found to be 27.2% and the inhibition at 2 µM was found to be 59.6%. Moreover, the inhibition at 10 µM on PI3Kδ (setting [4]) is 83.4%.

As for `CC(C)Oc1nc(Nc2ccc3nccc(-c4ccc(F)cc4)c3c2)nc2[nH]cnc12` [MED1007-136, 4-(4-fluorophenyl)-N-(6-isopropoxy-9H-purine-2-yl) quinoline-6-amine-methanesulfonate], on PI3Kδ (setting [3]), the inhibition at 0.4 µM worked out at 15.7% and the inhibition at 2 µM is 44.8%. The inhibition at 10 µM on PI3Kδ (setting [4]) worked out at 80.5%.

As for `COc1ccc(-c2ccnc3ccc(Nc4nc(OC(C)C)c5nc[nH]c5n4)cc23)cc1OC` [MED1007-137, 4-(3,4-dimethoxyphenyl)-N-(6-isopropoxy-9H-purine-2-yl) quinoline-6-amine-methanesulfonate], on PI3Kδ (setting [3]), the inhibition at 0.4 µM came to 27.6% and the inhibition at 2 µM was 63.3%. The inhibition at 10 µM on PI3Kδ (setting [4]) is 99.1%.

For `Oc1nc(Nc2ccc3nccc(-c4ccc5c(c4)OCO5)c3c2)nc2[nH]cnc12` [MED1007-139, 2-(4-(benzo[1,3]-dioxole-5-yl)quinoline-6-ylamino)-9H-purine-6-ol-methanesulfonate], on PI3Kδ (setting [3]), the inhibition at 0.4 µM amounted to 4.29% and the inhibition at 2 µM was found to be 15%. Further, the inhibition at 10 µM on PI3Kδ (setting [4]) was found to be 20.1%.

For the compound `CN[C@@H]1C[C@H]2O[C@@](C)([C@@H]1OC)n1c3ccccc3c3c4c(c5c6ccccc6n2c5c31)C(=O)NC4` [Staurosporine, reference compound], the inhibition at 1 µM on PDGFR β enzyme was found to be 99.8%.
